Measurements from publication PMC10666548, “Identification of the bacterial metabolite aerugine as potential trigger of human dopaminergic neurodegeneration” (Environment international, 2023).
“Also recorded” adds a separate entry of the source.

What was measured:
[1] = system: mitochondrial respiration in LUHMES cells; experiment: Seahorse assessment of mitochondrial respiratory parameters; assay type: cell-based, human; conditions: d3 LUHMES
Experimental: The method was performed as described previously. ([Delp et al., 2018]) In brief, LUHMES cells were seeded on d2 into pre-coated Agilent Seahorse XFe24 well plates at a density of 100′000 cells/well in differentiation medium. On d3 the cells were analyzed in a Seahorse XF analyzer using the Mito stress test kit in accordance with the manufacturer’s instructions. In brief, 1 h prior to analysis the medium was changed to Seahorse XF base medium supplemented with 18 mM glucose, 2 mM glutamine and 1 mM pyruvate. The oxygen consumption rate (OCR) was measured to determine the basal respiration in untreated cells. After test compound injection the acute response was quantified. […] The addition of 0.5 μM rotenone and 0.5 μM antimycin A completely shut down mitochondrial respiration to quantify non-mitochondrial respiration. […] Image acquisition was performed using an Array-Scan VTI HCS Reader (Cellomics, PA, USA) equipped with a Hamamatsu ORCA-ER camera. […] Nuclei were identified and quantified depending on intensity, area, size and shape. According to pixel size and well size the total cell count was calculated and used for normalization of the OCR data. […]
A The effect of aerugine on respiratory function was analysed in d3 LUHMES cells. […] C Delp et al. (2019) determined the dependence of LUHMES cells on glycolysis and their mitochondria for ATP production in two different media conditions. […]

[2] = system: GABA neurons of C. elegans Punc-25; experiment: C. elegans GABA neuron degeneration scoring (GFP-labelled neurons); assay type: in vivo, Caenorhabditis elegans; conditions: 48 h exposure
Experimental: The strain BY200 Pdat-1::gfp (vtIs1), dat-1::GFP(vtls1) was kindly provided by the Blakely laboratory, Vanderbilt University Medical Center and the strain Punc-25:GFP was obtained from the Caenorhabditis Genetics Center (CGC, University of Minnesota, Minneapolis, MN, USA). The worms were maintained in nematode growth medium (NGM) plates that contain: 3 g/l NaCl, 17 g/l agar, 2.5 g/l peptone, 1 mM CaCl2, 5 mg/l cholesterol, 1 mM MgSO4, 25 mM potassium phosphate buffer (pH 6.0) with 1.25 ml nystatin and 50 mg/l streptomycin sulfate) and Escherichia coli (E. coli) OP50 strain was used as food ([Brenner, 1974]). […]
On day 2 and day 8, approximately, 20–30 worms per treatment were picked onto slides prepped with a 3% agarose pad, anesthetized with 5 μl of 3 mM levamisole hydrochloride ([Sulston et al., 1975]) and observed under an Olympus BX41 fluorescence microscope to determine morphology status according to novel Likert-like scale of degeneration as previously described ([Benedetto et al., 2010]).
Fig. 5. […] They were exposed to different aerugine concentrations and counted every 24 h. […] Differences on a given day were analyzed by ANOVA and found to be non-significant. […] The GFP-labelled neurons of 20–30 worms per condition were analyzed and scored for specific neurodegeneration. […] These scores were assessed to quantify the dopaminergic neurodegeneration caused be aerugine in vivo. […]

SMILES: OCC1CSC(c2ccccc2O)=N1 (stereo not drawn) [aerugine, 2-[4-(hydroxymethyl)-4,5-dihydro-1,3-thiazol-2-yl]phenol]
- functional respiratory parameters (e.g. basal respiration, ATP production) [1]: no significant difference was observed
- oxygen consumption rate (OCR) ([1]; various metabolic conditions): not different from control conditions; also recorded: No interaction
- degeneration of GABA neurons [2]: not affected
